Results as given in publication PMC9402538, “Rational design of a sensitivity-enhanced tracer for discovering efficient APC–Asef inhibitors” (Nature Communications, 2022).
Numbering of substitutions follows the chain as printed. pKd: −log10 of the molar value. “And” between values parts separate entries of the source, which are not always exact repeats. Identical values can stand only once. “Also recorded” adds a separate entry of the source. Where a SMILES comes first, the peptide text is derived from it. The star is where a group is joined. Benzoyl(4-OMe) = COc1ccc(C(=O)*)cc1

How the values were obtained:
SW480 cells [1] = experiment: Wound-healing migration assay, SW480; type: cell-based
Experimental: Cells were seeded in 12-well plates at a density of 4 × 10^5 cells per well and grown until 90% confluence in DMEM supplemented with 10% FBS. The monolayers were scratched with a sterile pipette tip (QSP; T104TLS-Q). The cells were washed with 1× PBS and then cultured in culture medium containing 1% FBS and peptides or peptidomimetics. The corresponding photos were captured at the time of scratching and after 24–72 h.

APC N641A = biological target: T1, APC N641A (Homo sapiens, UniProt P25054, N641A); experiment: ITC assay, APC N641A mutant; type: binding
T1 sequence (P25054 303-739 N641A): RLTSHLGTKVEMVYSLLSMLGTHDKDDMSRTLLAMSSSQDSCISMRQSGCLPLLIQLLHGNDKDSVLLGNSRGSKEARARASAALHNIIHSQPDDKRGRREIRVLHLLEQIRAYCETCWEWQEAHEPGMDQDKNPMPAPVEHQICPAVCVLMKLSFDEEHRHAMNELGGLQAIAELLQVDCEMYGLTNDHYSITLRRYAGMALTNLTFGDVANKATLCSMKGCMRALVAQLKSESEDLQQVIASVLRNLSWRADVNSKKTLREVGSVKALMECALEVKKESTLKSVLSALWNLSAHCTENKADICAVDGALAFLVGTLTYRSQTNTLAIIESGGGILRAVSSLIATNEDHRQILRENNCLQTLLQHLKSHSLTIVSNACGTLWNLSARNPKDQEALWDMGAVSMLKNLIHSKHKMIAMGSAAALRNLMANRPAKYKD
Experimental: (§1) ITC experiments were performed using a MicroCal ITC200 calorimeter (Malvern Panalytical Ltd.). APC protein and peptide inhibitors were diluted with buffer containing 50 mM HEPES pH 7.5, 300 mM NaCl and 1 mM EDTA. The cells were loaded with APC proteins at 10–20 μM. All injections were performed using an initial injection of 0.2 μL followed by 19 injections of 2 μL at 100–200 μM. All measurements were carried out at 30 °C. The data were analyzed using a single-site binding model within MicroCal ITC200 analysis software to generate the stoichiometry (N), enthalpy changes (ΔH), entropy changes (ΔS), and the association constant (K) of binding. The changes in free energy (ΔG) were calculated (ΔG = ΔH-TΔS).

APC W593A, N641A = biological target: T2, APC W593A, N641A (Homo sapiens, UniProt P25054, N641A/W593A); experiment: ITC assay, APC W593A, N641A double mutant; type: binding
T2 sequence (P25054 303-739 W593A/N641A): T1 sequence (P25054 303-739 N641A) with W291A
Experimental: as §1

[2] = biological target: T3, APC–Asef PPI (HA–APC (303–876), FLAG–Asef (170–632)) (Homo sapiens, UniProt P25054); experiment: Exogenous Co-IP of APC–Asef in drug-treated HEK293T cells; settings: 24 h, TAT + linker and MAI-516 50 μM, MAIT-516 25 and 50 μM
T3 sequence (P25054 303-876): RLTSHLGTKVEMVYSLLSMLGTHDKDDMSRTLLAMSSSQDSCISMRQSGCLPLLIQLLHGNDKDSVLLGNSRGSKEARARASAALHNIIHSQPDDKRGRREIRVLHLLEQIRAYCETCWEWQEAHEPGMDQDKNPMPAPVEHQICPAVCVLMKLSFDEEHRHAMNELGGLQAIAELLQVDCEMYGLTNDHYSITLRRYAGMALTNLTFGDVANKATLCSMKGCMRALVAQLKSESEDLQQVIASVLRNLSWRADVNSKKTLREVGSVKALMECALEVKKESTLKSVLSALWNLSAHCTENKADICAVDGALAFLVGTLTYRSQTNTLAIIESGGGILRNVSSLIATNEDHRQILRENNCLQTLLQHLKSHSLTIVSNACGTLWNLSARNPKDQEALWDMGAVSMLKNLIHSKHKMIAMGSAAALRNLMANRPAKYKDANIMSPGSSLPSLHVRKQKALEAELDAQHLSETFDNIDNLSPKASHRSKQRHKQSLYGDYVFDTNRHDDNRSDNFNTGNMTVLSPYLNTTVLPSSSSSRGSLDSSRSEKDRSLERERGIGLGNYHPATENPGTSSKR
Experimental: For direct western blot analysis, cells were harvested in NP-40 lysis buffer (1% NP-40, 50 mM Tris-HCl at pH 7.5, 150 mM NaCl, 1 mM PMSF, 25 mM NaF, 1 mM Na3VO4) supplemented with cOmplete™ Protease Inhibitor Cocktail (Roche). […] Forty-eight hours after transfection, the cells were washed twice with cold PBS and lysed in NP-40 lysis buffer for 1 h on ice. […] The next day, the samples were centrifuged (7,000 × g for 30 s at 4 °C), and the supernatant was discarded. The beads were washed four times with NP-40 lysis buffer, and the bound proteins were eluted in SDS sample buffer for immunoblotting analysis and detected with anti-FLAG (Sigma; F1804, 1:1,000), anti-HA antibody (Sigma; H9658, 1:20,000) and goat anti-mouse IgG secondary antibody (Signalway antibody; L3032, 1:50,000). […] Twenty-four hours after transfection, peptides and peptidomimetics were added to the culture medium for 24 h. […] For endogenous immunoprecipitation, SW480, DLD1, and RKO cells were seeded in 10-cm cell culture dishes.

SW480 cells [3] = experiment: Transwell migration assay, SW480; type: cell-based
Experimental: Cells were serum-starved for 8 h and then digested and resuspended in serum-free medium. […] The lower chambers were filled with 600 μL of complete medium. […] After 48 h, the Transwell inserts were washed twice with 1× PBS. The cells in the upper chambers of the Transwell inserts were gently removed using cotton-tipped applicators. The cells on the lower surface of the membrane were fixed with methanol and then stained with crystal violet for 10 min. The Transwell inserts were washed with distilled water to remove the excess crystal violet and then dried. The stained cells from different areas were imaged using light microscopy and counted using ImageJ (NIH).

Question: With `COc1ccc(C(=O)N[C@@H](C)C(=O)NCC(=O)N[C@@H](CCC(=O)O)C(=O)N[C@@H](CO)C(=O)N[C@@H](CC(C)C)C(=O)N[C@@H](Cc2ccc(O)cc2)C(=O)N[C@@H](CCC(=O)O)C(N)=O)cc1` [MAI-516] ({Benzoyl(4-OMe)}-AGESLYE-NH2) as the molecule, how does the “Relative migration ability (single replicates)” value (SW480 cells [1]; FigS10c, relative to DMSO) read?
Answer: 0.86 and 1.12 and 0.84

Question: And the “Relative migration ability, mean” value (SW480 cells [1]; FigS10c, relative to DMSO)?
Answer: 0.94

Question: And the “cell migration (wound healing)” value (SW480 cells [1]; SW480, MAI-516 50 μM)?
Answer: dose not inhibit the migration; also recorded: no apparent impact

Question: What about the “reduction of binding affinity vs APC WT” value (APC N641A) of the same molecule?
Answer: ~2 fold

Question: What about the “-TΔS” value (APC N641A; 30 °C) of the same molecule?
Answer: 5.45 kcal/mol

Question: And the L/P ratio (APC N641A; 30 °C)?
Answer: 0.88

Question: And the ΔG (APC N641A; 30 °C)?
Answer: -11 kcal/mol

Question: And the pKd (APC N641A; ITC, 30 °C)?
Answer: 7.92

Question: And the “reduction of binding affinity vs APC WT” value (APC W593A, N641A)?
Answer: 200 fold

Question: What about the “-TΔS” value (APC W593A, N641A; 30 °C) of the same molecule?
Answer: 4.9 kcal/mol

Question: And the L/P ratio (APC W593A, N641A; 30 °C)?
Answer: 0.77

Question: What about the ΔG (APC W593A, N641A; 30 °C) of the same molecule?
Answer: -8.44 kcal/mol

Question: And the ΔH (APC W593A, N641A; 30 °C)?
Answer: -13.3 kcal/mol

Question: And the pKd (APC W593A, N641A; ITC, 30 °C)?
Answer: 6.07

Question: And the “effect on APC–Asef PPI (Co-IP)” value [2]?
Answer: no effect

Question: What about the “Relative migration ability (single replicates)” value (SW480 cells [3]; FigS10e, relative to DMSO) of the same molecule?
Answer: 1.11 and 1.06 and 0.96

Question: And the “Relative migration ability, mean” value (SW480 cells [3]; FigS10e, relative to DMSO)?
Answer: 1.04

Question: What about the “cell migration (transwell)” value (SW480 cells [3]; SW480, MAI-516 50 μM, 48 h) of the same molecule?
Answer: dose not inhibit the migration; also recorded: no apparent impact
